Like-named read-outs stand apart in the source and are kept apart here.

Results on seven compounds are retold here after patent publication US8492425B2, “5-methyl-1-(naphthalen-2-yl)-1H-pyrazoles useful as sigma receptor inhibitors” (Laboratories Del Dr. Esteve, S.A., priority 2008, dated 2013).

In one data set the target is T1, sigma-1 receptor (Cavia porcellus, UniProt Q60492).
T1 construct: from tissue; host or cells: guinea pig brain membranes
As to the kind of experiment: Sigma-1 receptor binding assay, [3H]-(+)-pentazocine displacement in guinea pig brain membranes. The note with it: for IC50: radioligand [3H]-(+)-pentazocine 3.0 nM, 150 min at 37° C., read-out: IC50 (inhibitory concentration); for Ki: read-out: Ki (binding affinity).

T1 sequence (Q60492 whole entry): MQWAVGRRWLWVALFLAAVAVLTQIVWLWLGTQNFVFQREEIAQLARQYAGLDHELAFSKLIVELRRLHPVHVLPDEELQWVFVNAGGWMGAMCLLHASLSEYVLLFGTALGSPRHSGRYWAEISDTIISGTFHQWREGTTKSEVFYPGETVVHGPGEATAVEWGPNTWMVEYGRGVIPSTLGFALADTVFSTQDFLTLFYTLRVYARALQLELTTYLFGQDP

Turning to `Cc1cc(OCCN2CCOCC2)nn1-c1ccc2ccc(O)cc2c1` (hydrate or solvate) [Compound 4, 4-{2-[1-(7-hydroxynaphthalen-2-yl)-5-methyl-1H-pyrazol-3-yloxy]ethyl}morpholine chlorhydrate], the melting point (in general, the temperature of the solid-liquid transition) is 103 to 107 °C. Consider `Cc1cc(OCCN2CCOCC2)nn1-c1ccc2ccc(O)cc2c1` [Compound 4, 4-{2-[1-(7-hydroxynaphthalen-2-yl)-5-methyl-1H-pyrazol-3-yloxy]ethyl}morpholine chlorhydrate], for which the IC50 at sigma-1 receptor (guinea pig brain membranes) is more than 1000 nM. Same read-out and setting: to `Cc1cc(OCC[N+]2([O-])CCOCC2)nn1-c1ccc2ccccc2c1` [Compound 6, 4-(2-(5-methyl-1-(naphthalen-2-yl)-1H-pyrazol-3-yloxy)ethyl)morpholine 4-oxide] belongs more than 1000 nM; to `Cc1cc(OCCN2CCOCC2)nn1-c1ccc2cc(O)ccc2c1` [Compound 2, 4-{2-[1-(6-hydroxynaphthalen-2-yl)-5-methyl-1H-pyrazol-3-yloxy]ethyl}morpholine chlorhydrate], more than 1000 nM. Regarding `Cc1cc(OCCN2CCOCC2)nn1-c1ccc2c(O)cccc2c1` [Compound 3, 4-{2-[1-(5-hydroxynaphthalen-2-yl)-5-methyl-1H-pyrazol-3-yloxy]ethyl}morpholine], on sigma-1 receptor, the Ki (commonly the dissociation constant of the complex between target and ligand, obtained from inhibition or displacement) came to 329 nM. Turning to `Cc1cc(OCCN2CCOCC2)nn1-c1ccc2c(c1)C=CC(O)C2O` (stereo not shown) [Compound 1, 6-(5-methyl-3-(2-morpholinoethoxy)-1H-pyrazol-1-yl)-1,2-dihydronaphthalene-1,2-diol], the IC50 at sigma-1 receptor (guinea pig brain membranes) is more than 1000 nM. Consider `Cc1cc(OCCNCCO)nn1-c1ccc2ccccc2c1` [Compound 5, 2-(2-(5-methyl-1-(naphthalen-2-yl)-1H-pyrazol-3-yloxy)ethylamino)ethanol chlorhydrate], for which the Ki on sigma-1 receptor (guinea pig brain membranes, [3H]-(+)-pentazocine 3.0 nM, calculated from IC50 by the Cheng-Prussof equation) is 102 nM.
